Assay results taken from US9458106B2, “Phenyl-pyridine/pyrazine amides for the treatment of cancer” (Hoffmann-La Roche Inc., priority 2013, dated 2016).

molecular target: T1, CDK8/Cyclin C (Homo sapiens, UniProt P49336); assay: CDK8/Cyclin C LANCE TR-FRET kinase assay; type: biochemical; settings: CDK8/Cyclin C 10 nM, ATP 24 μM, Ulight-GS peptide 80 nM, 37° C. 30 mins
T1 construct: purchased Invitrogen PV4402
From the text: CDK8/Cyclin C LANCE TR-FRET Kinase Assay
The biological activity of the compounds of the invention can be determined using the assay described below.
CDK8/Cyclin C protein was obtained from Invitrogen, cat #PV4402. ULight-Glycogen Synthase (Ulight-GS) peptide with sequence PASVPPSPSLSRHSSPHQ(pS)ED, and Europium-anti-phospho Glycogen Synthase (Ser641) [Eu-anti-P-GS (Ser641)] were obtained from Perkin Elmer, cat #TRF0131-M and cat #TRF0220. Adenosine-5′-triphosphate (ATP) was obtained from Invitrogen, cat #PV3227.
A mixture of (1) a compound of formula I, (2) substrate [Ulight-GS peptide (80 nM) and ATP (24 μM)], and (3) CDK8/Cyclin C (10 nM) in reaction buffer (50 mM Hepes, pH7.0, 10 mM MgCl2, 1 mM EGTA, 0.2 mg/mL BSA, 0.8 mM DTT) were incubated at 37° C. for 30 mins. Then, [Eu-anti-P-GS (Ser641)] (1.5 nM) was added. Following incubation at RT for 30 mins, the TR-FRET signals were detected using Envision reader (Ex 340 nm, Em 615 nm and 665 nm) from Perkin Elmer. The reactivity in percentage of inhibition or dose response was analyzed with GraphPad Prism 5 (GraphPad Software).

T1 sequence (P49336 whole entry): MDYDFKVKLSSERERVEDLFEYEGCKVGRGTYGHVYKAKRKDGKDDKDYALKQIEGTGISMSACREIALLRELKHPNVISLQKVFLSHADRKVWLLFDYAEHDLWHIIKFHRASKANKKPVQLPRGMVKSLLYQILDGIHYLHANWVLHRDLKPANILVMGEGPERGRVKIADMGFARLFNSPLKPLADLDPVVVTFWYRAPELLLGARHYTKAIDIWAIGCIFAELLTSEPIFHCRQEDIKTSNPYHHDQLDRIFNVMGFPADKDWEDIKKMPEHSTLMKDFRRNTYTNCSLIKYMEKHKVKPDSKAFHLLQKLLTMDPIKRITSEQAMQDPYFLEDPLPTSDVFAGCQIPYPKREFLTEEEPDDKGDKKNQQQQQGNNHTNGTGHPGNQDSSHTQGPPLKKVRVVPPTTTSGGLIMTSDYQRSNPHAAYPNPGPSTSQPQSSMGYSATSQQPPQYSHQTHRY
T1 sequence (P24863 whole entry partner): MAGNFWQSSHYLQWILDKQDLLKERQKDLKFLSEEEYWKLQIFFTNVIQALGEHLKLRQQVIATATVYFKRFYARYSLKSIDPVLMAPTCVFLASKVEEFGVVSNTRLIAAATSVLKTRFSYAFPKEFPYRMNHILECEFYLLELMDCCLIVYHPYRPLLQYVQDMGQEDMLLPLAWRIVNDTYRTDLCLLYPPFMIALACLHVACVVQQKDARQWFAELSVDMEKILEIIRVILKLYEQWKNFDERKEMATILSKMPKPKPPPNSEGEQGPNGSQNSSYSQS

SMILES | IC50 [nM]
NC(=O)[C@H](Nc1cncc(-c2cc(Cl)ccc2F)c1)c1ccccc1 [Example 1, (R)-2-[5-(5-Chloro-2-fluoro-phenyl)-pyridin-3-ylamino]-2-phenyl-cetamide] | 91.7
NC(=O)C(Nc1cncc(-c2ccc(O)c(Cl)c2)c1)c1ccccc1 (centres unmarked) [Example 2, 2-[5-(3-Chloro-4-hydroxy-phenyl)-pyridin-3-ylamino]-2-phenyl-acetamide] | 105
NC(=O)[C@H](Nc1cncc(-c2ccc(O)c(Cl)c2)c1)c1ccccc1 [Example 3, (R)-2-[5-(3-Chloro-4-hydroxy-phenyl)-pyridin-3-ylamino]-2-phenyl-acetamide] | 7.1
NC(=O)[C@@H](Nc1cncc(-c2ccc(O)c(Cl)c2)c1)c1ccccc1 [Example 4, (S)-2-[5-(3-Chloro-4-hydroxy-phenyl)-pyridin-3-ylamino]-2-phenyl-acetamide] | 471
Cc1ccncc1-c1cncc(NC(C(N)=O)c2ccccc2)c1 (centres unmarked) [Example 5, 2-(4′-Methyl-[3,3′]bipyridinyl-5-ylamino)-2-phenyl-acetamide] | 133
COc1cc(-c2cncc(NC(C(N)=O)c3ccccc3)c2)ccn1 (centres unmarked) [Example 6, 2-(2′-Methoxy-[3,4′]bipyridinyl-5-ylamino)-2-phenyl-acetamide] | 2170
CCOc1ccc(F)c(-c2cncc(NC(C(N)=O)c3ccccc3)c2)c1 (centres unmarked) [Example 7, 2-[5-(5-Ethoxy-2-fluoro-phenyl)-pyridin-3-ylamino]-2-phenyl-acetamide] | 1100
NC(=O)C(Nc1cncc(-c2ccc(F)c(Cl)c2)c1)c1ccccc1 (centres unmarked) [Example 8, 2-[5-(3-Chloro-4-fluoro-phenyl)-pyridin-3-ylamino]-2-phenyl-acetamide] | 2340
COc1cc(-c2cncc(NC(C(N)=O)c3ccccc3)c2)c(F)cn1 (centres unmarked) [Example 9, 2-(5′-Fluoro-2′-methoxy-[3,4′]bipyridinyl-5-ylamino)-2-phenyl-acetamide] | 1150
NC(=O)C(Nc1cncc(-c2cncc(Cl)c2)c1)c1ccccc1 (centres unmarked) [Example 10, 2-(5′-Chloro-[3,3′]bipyridinyl-5-ylamino)-2-phenyl-acetamide] | 1390
Cc1ccccc1C(Nc1cncc(-c2cc(Cl)ccc2F)c1)C(N)=O (centres unmarked) [Example 11, 2-[5-(5-Chloro-2-fluoro-phenyl)-pyridin-3-ylamino]-2-o-tolyl-acetamide] | 35.9
NC(=O)C(Nc1cncc(-c2cc(Cl)ccc2F)c1)c1ccccc1F (centres unmarked) [Example 12, 2-[5-(5-Chloro-2-fluoro-phenyl)-pyridin-3-ylamino]-2-(2-fluoro-phenyl)-acetamide] | 38.5
Cc1cccc(C(Nc2cncc(-c3cc(Cl)ccc3F)c2)C(N)=O)c1 (centres unmarked) [Example 13, 2-[5-(5-Chloro-2-fluoro-phenyl)-pyridin-3-ylamino]-2-m-tolyl-acetamide] | 566
NC(=O)C(Nc1cncc(-c2cc(Cl)ccc2F)c1)c1ccccc1Cl (centres unmarked) [Example 14, 2-[5-(5-Chloro-2-fluoro-phenyl)-pyridin-3-ylamino]-2-(2-chloro-phenyl)-acetamide] | 11
NC(=O)C(Nc1cncc(-c2cc(Cl)ccc2F)c1)c1cc(F)ccc1F (centres unmarked) [Example 15, 2-[5-(5-Chloro-2-fluoro-phenyl)-pyridin-3-ylamino]-2-(2,5-difluoro-phenyl)-acetamide] | 123
COc1ccc(F)c(-c2cncc(NC(C(N)=O)c3ccccc3)c2)c1 (centres unmarked) [Example 16, 2-[5-(2-Fluoro-5-methoxy-phenyl)-pyridin-3-ylamino]-2-phenyl-acetamide] | 264
NC(=O)C(Nc1cncc(-c2cc(Cl)ccc2F)c1)c1ccsc1 (centres unmarked) [Example 17, 2-[5-(5-Chloro-2-fluoro-phenyl)-pyridin-3-ylamino]-2-thiophen-3-yl-acetamide] | 54.2

SMILES | IC50 [nM]
Cc1ccc(C(Nc2cncc(-c3cc(Cl)ccc3F)c2)C(N)=O)cc1 (centres unmarked) [Example 18, 2-[5-(5-Chloro-2-fluoro-phenyl)-pyridin-3-ylamino]-2-p-tolyl-acetamide] | 240
NC(=O)C(Nc1cncc(-c2cc(Cl)ccc2F)c1)c1cccc(Cl)c1 (centres unmarked) [Example 19, 2-[5-(5-Chloro-2-fluoro-phenyl)-pyridin-3-ylamino]-2-(3-chloro-phenyl)-acetamide] | 432
NC(=O)C(Nc1cncc(-c2cc(Cl)ccc2F)c1)c1ccc(Cl)cc1 (centres unmarked) [Example 20, 2-[5-(5-Chloro-2-fluoro-phenyl)-pyridin-3-ylamino]-2-(4-chloro-phenyl)-acetamide] | 1080
COc1cccc(C(Nc2cncc(-c3cc(Cl)ccc3F)c2)C(N)=O)c1 (centres unmarked) [Example 21, 2-[5-(5-Chloro-2-fluoro-phenyl)-pyridin-3-ylamino]-2-(3-methoxy-phenyl)-acetamide] | 101
CS(=O)(=O)NC(=O)C(Nc1cncc(-c2cc(Cl)ccc2F)c1)c1ccccc1 (centres unmarked) [Example 22, N-{2-[5-(5-Chloro-2-fluoro-phenyl)-pyridin-3-ylamino]-2-phenyl-acetyl}-methanesulfonamide] | 7740
NC(=O)C(Nc1cncc(-c2cc(Cl)c(F)cc2F)c1)c1ccccc1 (centres unmarked) [Example 23, 2-[5-(5-Chloro-2,4-difluoro-phenyl)-pyridin-3-ylamino]-2-phenyl-acetamide] | 721
NC(=O)C(Nc1cncc(-c2cc(Cl)ccc2F)c1)c1ccccn1 (centres unmarked) [Example 24, 2-[5-(5-Chloro-2-fluoro-phenyl)-pyridin-3-ylamino]-2-pyridin-2-yl-acetamide] | 2110
NC(=O)C(Nc1cncc(-c2cc(Cl)ccc2F)c1)c1cccs1 (centres unmarked) [Example 25, 2-[5-(5-Chloro-2-fluoro-phenyl)-pyridin-3-ylamino]-2-thiophen-2-yl-acetamide] | 85.4
NC(=O)C(Nc1cncc(-c2ccc(O)c(Cl)c2)n1)c1ccccc1 (centres unmarked) [Example 26, 2-[6-(3-Chloro-4-hydroxy-phenyl)-pyrazin-2-ylamino]-2-phenyl-acetamide] | 4.8
NC(=O)[C@H](Nc1cncc(-c2ccc(O)c(Cl)c2)n1)c1ccccc1 [Example 27, (R)-2-[6-(3-Chloro-4-hydroxy-phenyl)-pyrazin-2-ylamino]-2-phenyl-acetamide] | 2.8
NC(=O)[C@@H](Nc1cncc(-c2ccc(O)c(Cl)c2)n1)c1ccccc1 [Example 28, (S)-2-[6-(3-Chloro-4-hydroxy-phenyl)-pyrazin-2-ylamino]-2-phenyl-acetamide] | 32.9
NC(=O)C(Nc1cncc(-c2cc(Cl)ccc2F)n1)c1ccccc1 (centres unmarked) [Example 29, 2-[6-(5-Chloro-2-fluoro-phenyl)-pyrazin-2-ylamino]-2-phenyl-acetamide] | 123
NC(=O)[C@H](Nc1cncc(-c2cc(Cl)ccc2F)n1)c1ccccc1 [Example 30, (R)-2-[6-(5-Chloro-2-fluoro-phenyl)-pyrazin-2-ylamino]-2-phenyl-aceamide] | 54.7
NC(=O)[C@@H](Nc1cncc(-c2cc(Cl)ccc2F)n1)c1ccccc1 [Example 31, (S)-2-[6-(5-Chloro-2-fluoro-phenyl)-pyrazin-2-ylamino]-2-phenyl-acetamide] | 828
COc1cccc(-c2cncc(NC(C(N)=O)c3ccccc3)n2)c1 (centres unmarked) [Example 32, 2-[6-(3-Methoxy-phenyl)-pyrazin-2-ylamino]-2-phenyl-acetamide] | 430
COc1cccc(-c2cncc(N[C@@H](C(N)=O)c3ccccc3)n2)c1 [Example 33, (R)-2-[6-(3-Methoxy-phenyl)-pyrazin-2-ylamino]-2-phenyl-acetamide] | 567

system: HCT116 (colorectal cancer); assay: In vitro cell proliferation assay (CCK-8), HCT116; type: cell-based; settings: Homo sapiens, HCT-116, HCT116 cells, 72 hours
Experimental: (§1) In Vitro Cell Proliferation Assay
(§2) Cells were seeded on 96-well plates at 5×10^3 cells per well and precultured for 24 hours. The cells were treated with serial diluted compounds and cultured for 72 hours. Then all media was discarded and after that, 100 μL 1:10 (v/v) Cell Counting Kit-8 (CCK-8)-culture media solution was added to the wells. Plate was developed for 2 hrs in an incubator, and the absorbance was measured at 450 nm wavelengths with SpectraMAX190 (MDS, Sunnyvale, Calif.). The inhibition rate (IR) of the tested compounds was determined with following formula: IR (%)=(ODDMSO−ODcompound)/ODDMSO×100%. The concentration corresponding to 50% IR (IC50) was determined with plot curve of IR against tested compound concentrations with SoftMax Pro.

SMILES | IC50 [nM]
NC(=O)[C@H](Nc1cncc(-c2cc(Cl)ccc2F)c1)c1ccccc1 [Example 1, (R)-2-[5-(5-Chloro-2-fluoro-phenyl)-pyridin-3-ylamino]-2-phenyl-cetamide] | 2610
NC(=O)[C@H](Nc1cncc(-c2ccc(O)c(Cl)c2)c1)c1ccccc1 [Example 3, (R)-2-[5-(3-Chloro-4-hydroxy-phenyl)-pyridin-3-ylamino]-2-phenyl-acetamide] | 740

system: DLD-1 (colorectal cancer); assay: In vitro cell proliferation assay (CCK-8), DLD-1; type: cell-based; settings: Homo sapiens, DLD-1 cells, 72 hours
Experimental: as §1, §2

SMILES | IC50 [µM]
NC(=O)[C@H](Nc1cncc(-c2ccc(O)c(Cl)c2)c1)c1ccccc1 [Example 3, (R)-2-[5-(3-Chloro-4-hydroxy-phenyl)-pyridin-3-ylamino]-2-phenyl-acetamide] | 0.604

system: AGS (gastric cancer); assay: In vitro cell proliferation assay (CCK-8), AGS; type: cell-based; settings: Homo sapiens, AGS cells, 72 hours
Experimental: as §1, §2

SMILES | IC50 [µM]
NC(=O)[C@H](Nc1cncc(-c2cc(Cl)ccc2F)c1)c1ccccc1 [Example 1, (R)-2-[5-(5-Chloro-2-fluoro-phenyl)-pyridin-3-ylamino]-2-phenyl-cetamide] | 2.66
NC(=O)[C@H](Nc1cncc(-c2ccc(O)c(Cl)c2)c1)c1ccccc1 [Example 3, (R)-2-[5-(3-Chloro-4-hydroxy-phenyl)-pyridin-3-ylamino]-2-phenyl-acetamide] | 0.517
